Measurements published in the NIST ThermoML archive (doi:10.1016/j.jct.2007.04.002).

Key:
[1] = excess molar enthalpy (molar enthalpy of mixing); xn = mol fraction of the nth substance listed; details: 101 kPa, Liquid, Calvet calorimetry
[2] = 101.33 kPa, Liquid, Not reported.

FC(F)(F)C(F)(F)C(F)(F)C(F)(F)C(F)(F)C(F)(F)F [perfluorohexane] + CCCCCC(C)C
[1], x1 = 1
Details | excess molar enthalpy [kcal/mol]
288.05 K | 0
298.15 K | 0

FC(F)(F)C(F)(F)C(F)(F)C(F)(F)C(F)(F)C(F)(F)F [perfluorohexane] + CCCCCCC
[1], 298.15 K
Details | excess molar enthalpy [kcal/mol]
x1 = 0.05 | 0.135
x1 = 0.1 | 0.24
x1 = 0.15 | 0.321
x1 = 0.2 | 0.382
x1 = 0.25 | 0.429
x1 = 0.3 | 0.463
x1 = 0.35 | 0.487
x1 = 0.4 | 0.504
x1 = 0.45 | 0.513
x1 = 0.5 | 0.516
x1 = 0.55 | 0.513
x1 = 0.6 | 0.503
x1 = 0.65 | 0.485
x1 = 0.7 | 0.459
x1 = 0.75 | 0.421
x1 = 0.8 | 0.371
x1 = 0.85 | 0.307
x1 = 0.9 | 0.225
x1 = 0.95 | 0.124
x1 = 1 | 0

CCCCCCCC [octane] + FC(F)(F)C(F)(F)C(F)(F)C(F)(F)C(F)(F)C(F)(F)F
Details | excess molar enthalpy [kcal/mol]
[1], 298.15 K, x2 = 0 | 0

FC(F)(F)C(F)(F)C(F)(F)C(F)(F)C(F)(F)C(F)(F)F [perfluorohexane] + C1CCCCC1
[1], 298.15 K
Details | excess molar enthalpy [kcal/mol]
x1 = 0.05 | 0.177
x1 = 0.1 | 0.301
x1 = 0.15 | 0.385
x1 = 0.2 | 0.44
x1 = 0.25 | 0.475
x1 = 0.3 | 0.498
x1 = 0.35 | 0.513
x1 = 0.4 | 0.522
x1 = 0.45 | 0.528
x1 = 0.5 | 0.53
x1 = 0.55 | 0.528
x1 = 0.6 | 0.519
x1 = 0.65 | 0.503
x1 = 0.7 | 0.476
x1 = 0.75 | 0.436
x1 = 0.8 | 0.382
x1 = 0.85 | 0.311
x1 = 0.9 | 0.224
x1 = 0.95 | 0.12
x1 = 1 | 0

FC(F)(F)C(F)(F)C(F)(F)C(F)(F)C(F)(F)C(F)(F)C(F)(F)F [hexadecafluoroheptane] + CCCCCC
[1], 298.15 K
Details | excess molar enthalpy [kcal/mol]
x1 = 0.05 | 0.15
x1 = 0.1 | 0.258
x1 = 0.15 | 0.335
x1 = 0.2 | 0.39
x1 = 0.25 | 0.429
x1 = 0.3 | 0.456
x1 = 0.35 | 0.474
x1 = 0.4 | 0.487
x1 = 0.45 | 0.495
x1 = 0.5 | 0.497
x1 = 0.55 | 0.495
x1 = 0.6 | 0.485
x1 = 0.65 | 0.467
x1 = 0.7 | 0.439
x1 = 0.75 | 0.4
x1 = 0.8 | 0.348
x1 = 0.85 | 0.281
x1 = 0.9 | 0.201
x1 = 0.95 | 0.107
x1 = 1 | 0

CCCCCC(C)C [2-methylheptane]
[2]
Details | molar volume [m3/mol]
288.05 K | 0.0001626
298.15 K | 0.0001636

CCCCCC [hexane] + FC(F)(F)C(F)(F)C(F)(F)C(F)(F)C(F)(F)F
Details | excess molar enthalpy [kcal/mol]
[1], 293.15 K, x2 = 0 | 0

FC(F)(F)C(F)(F)C(F)(F)C(F)(F)C(F)(F)C(F)(F)F [perfluorohexane] + CCCCCCCC
[1], 298.15 K
Details | excess molar enthalpy [kcal/mol]
x1 = 0.05 | 0.137
x1 = 0.1 | 0.24
x1 = 0.15 | 0.315
x1 = 0.2 | 0.368
x1 = 0.25 | 0.404
x1 = 0.3 | 0.428
x1 = 0.35 | 0.443
x1 = 0.4 | 0.452
x1 = 0.45 | 0.457
x1 = 0.5 | 0.458
x1 = 0.55 | 0.457
x1 = 0.6 | 0.452
x1 = 0.65 | 0.442
x1 = 0.7 | 0.426
x1 = 0.75 | 0.401
x1 = 0.8 | 0.363
x1 = 0.85 | 0.309
x1 = 0.9 | 0.234
x1 = 0.95 | 0.133
x1 = 1 | 0

C1CCCCC1 [cyclohexane] + FC(F)(F)C(F)(F)C(F)(F)C(F)(F)C(F)(F)C(F)(F)F
Details | excess molar enthalpy [kcal/mol]
[1], 298.15 K, x2 = 0 | 0

CCCCCC [hexane] + FC(F)(F)C(F)(F)C(F)(F)C(F)(F)C(F)(F)C(F)(F)C(F)(F)C(F)(F)F
Details | excess molar enthalpy [kcal/mol]
[1], 298.15 K, x2 = 0 | 0

CCCCCC [hexane] + FC(F)(F)C(F)(F)C(F)(F)C(F)(F)C(F)(F)C(F)(F)C(F)(F)F
Details | excess molar enthalpy [kcal/mol]
[1], 298.15 K, x2 = 0 | 0

FC(F)(F)C(F)(F)C(F)(F)C(F)(F)C(F)(F)C(F)(F)F [perfluorohexane] + CCCCCC
[1], 298.15 K
Details | excess molar enthalpy [kcal/mol]
x1 = 0.05 | 0.133
x1 = 0.1 | 0.235
x1 = 0.15 | 0.313
x1 = 0.2 | 0.372
x1 = 0.25 | 0.416
x1 = 0.3 | 0.45
x1 = 0.35 | 0.473
x1 = 0.4 | 0.49
x1 = 0.45 | 0.5
x1 = 0.5 | 0.503
x1 = 0.55 | 0.5
x1 = 0.6 | 0.489
x1 = 0.65 | 0.469
x1 = 0.7 | 0.441
x1 = 0.75 | 0.401
x1 = 0.8 | 0.35
x1 = 0.85 | 0.285
x1 = 0.9 | 0.205
x1 = 0.95 | 0.11
x1 = 1 | 0

CCCCC [pentane] + FC(F)(F)C(F)(F)C(F)(F)C(F)(F)C(F)(F)C(F)(F)F
Details | excess molar enthalpy [kcal/mol]
[1], 293.15 K, x2 = 0 | 0

C1CCCCC1 [cyclohexane]
Details | molar volume [m3/mol]
[2], 298.15 K | 0.0001086

FC(F)(F)C(F)(F)C(F)(F)C(F)(F)C(F)(F)C(F)(F)C(F)(F)C(F)(F)F [octadecafluorooctane] + CCCCCC
[1], 298.15 K
Details | excess molar enthalpy [kcal/mol]
x1 = 0.05 | 0.183
x1 = 0.1 | 0.303
x1 = 0.15 | 0.379
x1 = 0.2 | 0.422
x1 = 0.25 | 0.445
x1 = 0.3 | 0.455
x1 = 0.35 | 0.456
x1 = 0.4 | 0.453
x1 = 0.45 | 0.448
x1 = 0.5 | 0.44
x1 = 0.55 | 0.43
x1 = 0.6 | 0.415
x1 = 0.65 | 0.394
x1 = 0.7 | 0.366
x1 = 0.75 | 0.327
x1 = 0.8 | 0.279
x1 = 0.85 | 0.22
x1 = 0.9 | 0.152
x1 = 0.95 | 0.0767
x1 = 1 | 0

FC(F)(F)C(F)(F)C(F)(F)C(F)(F)C(F)(F)C(F)(F)F [perfluorohexane] + CCCCC
[1], 293.15 K
Details | excess molar enthalpy [kcal/mol]
x1 = 0.05 | 0.127
x1 = 0.1 | 0.225
x1 = 0.15 | 0.3
x1 = 0.2 | 0.357
x1 = 0.25 | 0.399
x1 = 0.3 | 0.431
x1 = 0.35 | 0.453
x1 = 0.4 | 0.467
x1 = 0.45 | 0.475
x1 = 0.5 | 0.476
x1 = 0.55 | 0.47
x1 = 0.6 | 0.457
x1 = 0.65 | 0.435
x1 = 0.7 | 0.405
x1 = 0.75 | 0.365
x1 = 0.8 | 0.315
x1 = 0.85 | 0.253
x1 = 0.9 | 0.18
x1 = 0.95 | 0.0954
x1 = 1 | 0

CCCCCCC [heptane] + FC(F)(F)C(F)(F)C(F)(F)C(F)(F)C(F)(F)C(F)(F)F
Details | excess molar enthalpy [kcal/mol]
[1], 298.15 K, x2 = 0 | 0

CCCCCC(C)C [2-methylheptane] + FC(F)(F)C(F)(F)C(F)(F)C(F)(F)C(F)(F)C(F)(F)F
excess molar enthalpy [kcal/mol], [1]
Details | 288.05 K | 298.15 K
x2 = 0 | 0 | 0
x2 = 0.05 | 0.124 | 0.129
x2 = 0.1 | 0.223 | 0.231
x2 = 0.15 | 0.3 | 0.313
x2 = 0.2 | 0.359 | 0.376
x2 = 0.25 | 0.404 | 0.425
x2 = 0.3 | 0.438 | 0.462
x2 = 0.35 | 0.462 | 0.488
x2 = 0.4 | 0.478 | 0.506
x2 = 0.45 | 0.488 | 0.516
x2 = 0.5 | 0.491 | 0.52
x2 = 0.55 | 0.488 | 0.516
x2 = 0.6 | 0.478 | 0.505
x2 = 0.65 | 0.461 | 0.487
x2 = 0.7 | 0.436 | 0.46
x2 = 0.75 | 0.401 | 0.422
x2 = 0.8 | 0.354 | 0.372
x2 = 0.85 | 0.293 | 0.307
x2 = 0.9 | 0.216 | 0.226
x2 = 0.95 | 0.119 | 0.124

FC(F)(F)C(F)(F)C(F)(F)C(F)(F)C(F)(F)F [perfluoropentane] + CCCCCC
[1], 293.15 K
Details | excess molar enthalpy [kcal/mol]
x1 = 0.05 | 0.127
x1 = 0.1 | 0.224
x1 = 0.15 | 0.298
x1 = 0.2 | 0.352
x1 = 0.25 | 0.392
x1 = 0.3 | 0.42
x1 = 0.35 | 0.439
x1 = 0.4 | 0.451
x1 = 0.45 | 0.456
x1 = 0.5 | 0.455
x1 = 0.55 | 0.449
x1 = 0.6 | 0.436
x1 = 0.65 | 0.416
x1 = 0.7 | 0.388
x1 = 0.75 | 0.352
x1 = 0.8 | 0.305
x1 = 0.85 | 0.248
x1 = 0.9 | 0.178
x1 = 0.95 | 0.0956
x1 = 1 | 0

CCCCCC [hexane] + FC(F)(F)C(F)(F)C(F)(F)C(F)(F)C(F)(F)C(F)(F)F
Details | excess molar enthalpy [kcal/mol]
[1], 298.15 K, x2 = 0 | 0

FC(F)(F)C(F)(F)C(F)(F)C(F)(F)C(F)(F)C(F)(F)F [perfluorohexane]
Details | molar volume [m3/mol]
[2], 288.05 K | 0.0001982
